Columns and labels:
Assay in all cases: relative viability (nuclei count vs DMSO), 5 days (fraction); higher = more cells survive
[1] = compound: C[C@]12O[C@H](C[C@]1(O)CO)n1c3ccccc3c3c4c(c5c6ccccc6n2c5c31)CNC4=O [Lestaurtinib] + Cc1cc(Nc2cc(N3CCN(C)CC3)nc(Sc3ccc(NC(=O)C4CC4)cc3)n2)n[nH]1 [Tozasertib] (partner 0.1 µM)
Summary of the method: (§1)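 One day after seeding in 1536-well plates, lung cancer cell lines were dosed by pin tool. Dosing was either single-drug or a fixed anchor-drug dose plus five library-drug doses (not always all listed) in √10 steps. After 5 days, nuclei were stained in one fix-and-stain step and counted on 4× images, and relative viability is the nuclei count of treated wells over that of vehicle wells, given as the median of duplicate plates.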

[2] = compound: C1=CC(=CC=C1C2=CC(=C(S2)NC(=O)N)C(=O)N)F [TPCA-1] + O=C(CCCCCCC(=O)Nc1ccccc1)NO [Vorinostat] (partner 1 µM)
Summary of the method: as §1

[3] = compound: C[C@]12O[C@H](C[C@]1(O)CO)n1c3ccccc3c3c4c(c5c6ccccc6n2c5c31)CNC4=O [Lestaurtinib] + Cc1nc(Nc2ncc(C(=O)Nc3c(C)cccc3Cl)s2)cc(N2CCN(CCO)CC2)n1 [Dasatinib] (partner 0.075 µM)
Summary of the method: as §1

[4] = compound: C1=CC(=CC=C1C2=CC(=C(S2)NC(=O)N)C(=O)N)F [TPCA-1] + Cc1nc(NC(=O)N2CCC[C@H]2C(N)=O)sc1-c1ccnc(C(C)(C)C(F)(F)F)c1 [Alpelisib] (partner 2 µM)
Summary of the method: as §1

Cell Line | relative viability ([1]; first compound 0.005 µM) | relative viability ([1]; first compound 0.01581 µM) | relative viability ([1]; first compound 0.05 µM) | relative viability ([1]; first compound 0.1581 µM) | relative viability ([1]; first compound 0.5 µM) | relative viability ([2]; first compound 0.4 µM) | relative viability ([2]; first compound 1.265 µM) | relative viability ([2]; first compound 4 µM) | relative viability ([3]; first compound 0.005 µM) | relative viability ([3]; first compound 0.01581 µM) | relative viability ([3]; first compound 0.05 µM) | relative viability ([3]; first compound 0.1581 µM) | relative viability ([3]; first compound 0.5 µM) | relative viability ([2]; first compound 0.04 µM) | relative viability ([2]; first compound 0.1265 µM) | relative viability ([4]; first compound 0.04 µM) | relative viability ([4]; first compound 0.1265 µM) | relative viability ([4]; first compound 0.4 µM) | relative viability ([4]; first compound 1.265 µM) | relative viability ([4]; first compound 4 µM)
SW 900 | 0.462 | 0.683 | 0.503 | 0.703 | 0.538 | 0.515 | 0.422 | 0.45 | 0.739 | 0.702 | 0.445 | 0.57 | 0.32 | – | – | – | – | – | – | –
NCI-H1944 | 0.262 | 0.276 | 0.234 | 0.236 | 0.201 | 0.675 | 0.512 | 0.521 | 0.207 | 0.23 | 0.176 | 0.137 | 0.147 | 0.648 | 0.709 | 0.859 | 0.799 | 0.815 | 0.744 | 0.658
NCI-H727 | 0.598 | 0.728 | 0.63 | 0.584 | 0.41 | 1.26 | 1.25 | 1.31 | 0.402 | 0.285 | 0.459 | 0.542 | 0.231 | 1.21 | 0.947 | 0.591 | 0.485 | 0.597 | 0.504 | 0.507
NCI-H1650 | 0.469 | 0.526 | 0.343 | 0.371 | 0.313 | 0.584 | 0.675 | 0.498 | 0.263 | 0.345 | 0.391 | 0.387 | 0.144 | 0.717 | 0.575 | – | – | – | – | –
HCC-827 | 0.492 | 0.405 | 0.396 | 0.348 | 0.217 | 0.89 | 0.841 | 0.671 | 0.428 | 0.323 | 0.256 | 0.318 | 0.246 | 0.987 | 0.764 | 1.09 | 0.933 | 1.08 | 0.905 | 0.491
HCC-366 | 0.174 | 0.126 | 0.142 | 0.0841 | 0.072 | 0.359 | 0.285 | 0.0534 | 0.74 | 0.659 | 0.518 | 0.516 | 0.185 | – | 0.288 | 0.481 | 0.362 | 0.352 | 0.378 | 0.185
HARA | 0.126 | 0.106 | 0.111 | 0.108 | 0.102 | 0.528 | 0.433 | 0.361 | 0.27 | 0.3 | 0.21 | 0.261 | 0.238 | 0.55 | 0.51 | 0.952 | 0.675 | 1.01 | 0.725 | 0.6
NCI-H322M | 0.483 | 0.276 | 0.355 | 0.397 | 0.415 | 0.958 | 0.864 | 0.431 | 0.233 | 0.279 | 0.277 | 0.293 | 0.339 | 0.976 | 0.89 | 0.846 | 0.74 | 0.764 | 0.688 | 0.785
LXF-289 | 0.229 | 0.206 | 0.194 | 0.203 | 0.141 | 0.762 | 0.764 | 0.42 | 0.21 | 0.275 | 0.146 | 0.154 | 0.0882 | 0.786 | 0.819 | 1.07 | 0.951 | 1.05 | 0.955 | 0.783
PC-3 [JPC-3] | 0.87 | 0.998 | 0.765 | 0.777 | 0.587 | 0.963 | 0.818 | 0.284 | 1.01 | 1.02 | 0.843 | 0.857 | 0.483 | 0.787 | 0.765 | 1.01 | 1.02 | 1.04 | 0.957 | 0.958
CAL-12T | 0.32 | 0.44 | 0.333 | 0.37 | 0.332 | 0.762 | 0.733 | 0.568 | 0.447 | 0.413 | 0.306 | 0.307 | 0.153 | 0.763 | 0.523 | 1.22 | 0.907 | 0.93 | 1.1 | 0.707
COR-L 105 | 0.406 | 0.355 | 0.35 | 0.31 | 0.268 | 0.766 | 0.628 | 0.391 | 0.32 | 0.32 | 0.245 | 0.258 | 0.145 | 1.02 | 0.709 | 1.07 | 0.892 | 0.987 | 0.919 | 0.898
NCI-H2347 | 1.15 | 0.64 | 0.493 | 0.412 | 0.537 | 0.803 | 0.527 | 0.516 | 0.278 | 0.15 | 0.319 | 0.252 | 0.253 | 0.8 | 0.551 | 1.14 | 0.969 | 1.03 | 0.817 | 0.917
NCI-H2126 | 0.919 | 0.963 | 0.802 | 0.699 | 0.48 | 0.891 | 0.559 | 0.238 | 0.678 | 0.759 | 0.59 | 0.624 | 0.463 | 0.843 | 0.695 | 0.759 | 0.673 | 0.753 | 0.786 | 0.596
